Columns and labels:
Assay type in all cases: in vivo
[1] = system: sedge, umbrella (small-flower umbrella sedge, Cyperus difformis); test: Test B flooded paddy test, visual plant response rating 0-100; settings: 250 g ai/ha, Flood, applied to paddy water, evaluated after 13 days
Method in brief: (§1)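 Treatment occurs at the 2-leaf stage by adding compound to floodwater standing 3 cm above the soil, a level kept for the whole test. Plants stay in the greenhouse 13 days before visual comparison with controls.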

[2] = system: rice (Oryza sativa); test: as above; settings: 250 g ai/ha, Flood, applied to paddy water, evaluated after 13 days
Method in brief: as §1

[3] = system: ducksalad (Heteranthera limosa); test: as above; settings: 250 g ai/ha, Flood, applied to paddy water, evaluated after 13 days
Method in brief: as §1

[4] = system: barnyardgrass (Echinochloa crusgalli); test: as above; settings: 250 g ai/ha, Flood, applied to paddy water, evaluated after 13 days
Method in brief: as §1

[5] = system: soybean (Glycine max); test: Test A preemergence soil spray, visual injury rating 0-100; settings: 10 days
Method in brief: (§2)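 Scale 0–100 (no effect to complete control), visual, versus untreated controls, read 10 days after application. Application: preemergence directed spray onto seeded loam–sand soil, or postemergence to young plants; formulation in non-phytotoxic solvent with surfactant.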

[6] = system: palmer (palmer amaranth, palmer pigweed, Amaranthus palmeri); test: as above; settings: 10 days
Method in brief: as §2

[7] = system: kochia (Bassia scoparia); test: as above; settings: 10 days
Method in brief: as §2

[8] = system: ragweed (common ragweed, Ambrosia artemisiifolia); test: as above; settings: 10 days
Method in brief: as §2

[9] = system: wheat (Triticum aestivum); test: as above; settings: 10 days
Method in brief: as §2

[10] = system: ryegrass, Italian (italian ryegrass, Lolium multiflorum); test: as above; settings: 10 days
Method in brief: as §2

[11] = system: green foxtail (Setaria viridis); test: as above; settings: 10 days
Method in brief: as §2

[12] = system: blackgrass (Alopecurus myosuroides); test: as above; settings: 10 days
Method in brief: as §2

[13] = system: barnyardgrass (Echinochloa crus-galli); test: as above; settings: 10 days
Method in brief: as §2

[14] = system: corn (Zea mays); test: as above; settings: 10 days
Method in brief: as §2

[15] = system: oat, wild (wild oat, Avena fatua); test: as above; settings: 10 days
Method in brief: as §2

[16] = system: soybean (Glycine max); test: Test A postemergence application, visual injury rating 0-100
Method in brief: as §2

[17] = system: palmer (palmer amaranth, palmer pigweed, Amaranthus palmeri); test: as above
Method in brief: as §2

[18] = system: kochia (Bassia scoparia); test: as above
Method in brief: as §2

[19] = system: ragweed (common ragweed, Ambrosia artemisiifolia); test: as above
Method in brief: as §2

[20] = system: wheat (Triticum aestivum); test: as above
Method in brief: as §2

[21] = system: ryegrass, Italian (italian ryegrass, Lolium multiflorum); test: as above
Method in brief: as §2

[22] = system: horseweed (Erigeron canadensis); test: as above
Method in brief: as §2

[23] = system: green foxtail (Setaria viridis); test: as above
Method in brief: as §2

[24] = system: blackgrass (Alopecurus myosuroides); test: as above
Method in brief: as §2

[25] = system: barnyardgrass (Echinochloa crus-galli); test: as above
Method in brief: as §2

[26] = system: corn (Zea mays); test: as above
Method in brief: as §2

[27] = system: oat, wild (wild oat, Avena fatua); test: as above
Method in brief: as §2

[28] = 62 g ai/ha, 0 = no effect, 100 = complete control
[29] = 62 g ai/ha, postemergence, 10 days, 0 = no effect, 100 = complete control
[30] = Postemergence, 16 g ai/ha, greenhouse 10 days, 0 no effect, 100 complete control

COC(=O)COC(=O)C1=CCC(NC(=O)C2(C)CN(c3cc(F)cc(F)c3)C(=O)O2)C1 (centres unmarked) [Compound 108]
Plant response rating, Sedge, Umbrella (0 to 100 scale, 0 is no effect and 100 is complete control) [1]: 70 | Plant response rating, Rice (0 to 100 scale, 0 is no effect and 100 is complete control) [2]: 85 | Plant response rating, Ducksalad (0 to 100 scale, 0 is no effect and 100 is complete control) [3]: 70 | Plant response rating, Barnyardgrass (0 to 100 scale, 0 is no effect and 100 is complete control) [4]: 50 | Soybean plant response rating ([5]; 16 g ai/ha, 0 to 100 scale): 0 | Soybean plant response rating (0-100) [5, 28]: 10 | Pigweed, Palmer plant response rating ([6]; 16 g ai/ha, 0 to 100 scale): 30 | Pigweed, Palmer plant response rating (0-100) [6, 28]: 90 | Kochia plant response rating ([7]; 16 g ai/ha, 0 to 100 scale): 0 | Kochia plant response rating (0-100) [7, 28]: 50 | Ragweed plant response rating ([8]; 16 g ai/ha, 0 to 100 scale): 0 | Ragweed plant response rating (0-100) [8, 28]: 0 | Wheat plant response rating ([9]; 16 g ai/ha, 0 to 100 scale): 90 | Wheat plant response rating (0-100) [9, 28]: 90 | Ryegrass, Italian plant response rating ([10]; 16 g ai/ha, 0 to 100 scale): 70 | Ryegrass, Italian plant response rating (0-100) [10, 28]: 90 | Foxtail, Green plant response rating ([11]; 16 g ai/ha, 0 to 100 scale): 30 | Foxtail, Green plant response rating (0-100) [11, 28]: 100 | Blackgrass plant response rating ([12]; 16 g ai/ha, 0 to 100 scale): 0 | Blackgrass plant response rating (0-100) [12, 28]: 30 | Barnyardgrass plant response rating ([13]; 16 g ai/ha, 0 to 100 scale): 20 | Barnyardgrass plant response rating (0-100) [13, 28]: 100 | Corn plant response rating ([14]; 16 g ai/ha, 0 to 100 scale): 30 | Corn plant response rating (0-100) [14, 28]: 60 | Oat, Wild plant response rating ([15]; 16 g ai/ha, 0 to 100 scale): 0 | Oat, Wild plant response rating (0-100) [15, 28]: 70 | Soybean plant response rating (0-100) [16, 29]: 70 | Soybean plant response rating (0 to 100 scale) [16, 30]: 60 | Pigweed, Palmer plant response rating (0-100) [17, 29]: 90 | Pigweed, Palmer plant response rating (0 to 100 scale) [17, 30]: 70 | Kochia plant response rating (0-100) [18, 29]: 90 | Kochia plant response rating (0 to 100 scale) [18, 30]: 80 | Ragweed plant response rating (0-100) [19, 29]: 40 | Ragweed plant response rating (0 to 100 scale) [19, 30]: 20 | Wheat plant response rating (0-100) [20, 29]: 90 | Wheat plant response rating (0 to 100 scale) [20, 30]: 50 | Ryegrass, Italian plant response rating (0-100) [21, 29]: 80 | Ryegrass, Italian plant response rating (0 to 100 scale) [21, 30]: 60 | Horseweed plant response rating (0-100) [22, 29]: 70 | Horseweed plant response rating (0 to 100 scale) [22, 30]: 30 | Foxtail, Green plant response rating (0-100) [23, 29]: 90 | Foxtail, Green plant response rating (0 to 100 scale) [23, 30]: 60 | Blackgrass plant response rating (0-100) [24, 29]: 90 | Blackgrass plant response rating (0 to 100 scale) [24, 30]: 70 | Barnyardgrass plant response rating (0-100) [25, 29]: 100 | Barnyardgrass plant response rating (0 to 100 scale) [25, 30]: 90 | Corn plant response rating (0-100) [26, 29]: 100 | Corn plant response rating (0 to 100 scale) [26, 30]: 100 | Oat, Wild plant response rating (0-100) [27, 29]: 80 | Oat, Wild plant response rating (0 to 100 scale) [27, 30]: 30

Reference: patent publication US20260285850A1, “SUBSTITUTED OXAZOLIDINONES AND IMIDAZOLINONES AS HERBICIDES” (FMC CORPORATION, priority 2023, published 2026)
